Experiment [1] relates to oxido-squalene cyclase. The experiment in a line: In vivo test to measure inhibition of oxido-squalene cyclase / cholesterol biosynthesis in the rat. Conditions: 2 mg/kg, oral, female rats. Here is the method:
(b) In vivo Test to Measure Inhibition of Oxido-Squalene Cyclase
The ability of a compound to inhibit oxido-squalene cyclase and/or inhibit cholesterol biosynthesis may be assessed by a routine laboratory procedure carried out in the rat. The test involves administration of the compound to rats on a reversed lighting regimen. Female rats (35-55 g) are housed in reverse lighting conditions (red light from 0200 h-1400 h) for a period of about 2 weeks prior to test. Animals are allowed free access to chow and drinking water throughout this period. At test, animals should weigh 100-140 g. The rats are dosed orally, with the compound (typically 10-50 mg/kg) formulated in a polyethylene glycol/hydroxypropylmethyl cellulose mix. After 1 hour the rats are given […] sodium mevalonate (15 μCi/kg) intraperitoneally. Two hours after administration of the compound the rats are terminated and a piece of liver removed and weighed. The tissue is saponified at 80° C. for 2 hours in an ethaniolic/potassium hydroxide solution (80% w/v aqueous KOH diluted 1:10 with ethanol). Water (2 ml) is added and the mixture extracted with iso-hexane (2×5 ml). The organic extracts are combined, evaporated to dryness under a stream of nitrogen and the residue is dissolved in a mixture of acetonitrile/iso-propanol (300 μl). […] The radio-label content of each fraction is assessed using a radio chemical flow detector. […]

Experiment [2] concerns oxido-squalene cyclase. The experiment in a line: In vitro test to measure inhibition of microsomal oxido-squalene cyclase. In kind it is biochemical. Conditions: 1 μM; rat liver microsomes. The protocol: (a) In vitro Test to Measure Inhibition of Oxido-squalene Cyclase
This test measures the inhibition of microsomal oxido-squalene cyclase in vitro by compounds at set concentrations in the incubation medium.
Microsomes are prepared from rat liver according to methods known in the art, for example, the method described in published European Patent Application No 324,421 and stored in liquid nitrogen prior to assay. Assay vials are kept at 37° C. throughout the incubation. The microsomes typically contain 15-20 mg of protein per ml of microsomes. For assay, 1 ml of microsomes are diluted by the addition of 722 μl of 50 mM phosphate buffer pH 7.4.
Phosphate buffered Tween 80 (polyoxyethylene sorbitan […]) is prepared by adding 0.1 g Tween 80 to 100 ml of 50 mM phosphate buffer.
A stock solution of oxido-squalene is made up as a solution in ethanol (0.65 mg.ml^-1). 18 μl of radio-labelled oxido-squalene (1 μCi.ml^-1) is evaporated to dryness under a stream of nitrogen and redissolved in 1 ml of ethanol and 1 ml of the stock solution of oxido-squalene is added.
The test compound is dissolved in dimethyl sulphoxide to give a 10^-4 M stock solution. […]
The samples are then placed in a water bath at 80° C. for 2 hours to saponify. […] Reaction rate is measured as the conversion of oxido-squalene to lanosterol, and the effects of test compounds are expressed as an inhibition of this process.

For `Fc1cc(Br)ccc1CN1CCN(c2ccncc2)CC1` [Example 18, 1-(4-pyridyl)-4-(2-fluoro-4-bromobenzyl)piperazine], the “inhibition of cholesterol biosynthesis” value in experiment [1] is 59%.

Take `O=S(=O)(c1ccc(Br)cc1)N1CCN(c2ccncc2)CC1` [Example 25, 1-(4-pyridyl)-4-(4-bromophenylsulphonyl)piperazine]: the “inhibition of oxido-squalene cyclase (conversion of oxido-squalene to lanosterol)” value in experiment [2] turned out to be 100%.

Regarding `N#Cc1ccc(S(=O)(=O)Nc2ccc(N3CCN(c4ccncc4)CC3)cc2)cc1` [Example 27, 1-(4-pyridyl)-4-(4-cyanophenylsulphonamidophenyl)piperazine], the “inhibition of cholesterol biosynthesis” value in experiment [1] was found to be 70%.

These data come from patent US6313127A, “Heterocyclic compounds useful as pharmaceutical agents” (Zeneca Limited, priority 1996, dated 2001).
